Molecular target: T1, AioX (Pseudorhizobium banfieldiae, UniProt L0NML6)
T1 construct: 304 amino acid residues; His-tag removed; SeMet-labelled
T1 sequence (L0NML6 27-304): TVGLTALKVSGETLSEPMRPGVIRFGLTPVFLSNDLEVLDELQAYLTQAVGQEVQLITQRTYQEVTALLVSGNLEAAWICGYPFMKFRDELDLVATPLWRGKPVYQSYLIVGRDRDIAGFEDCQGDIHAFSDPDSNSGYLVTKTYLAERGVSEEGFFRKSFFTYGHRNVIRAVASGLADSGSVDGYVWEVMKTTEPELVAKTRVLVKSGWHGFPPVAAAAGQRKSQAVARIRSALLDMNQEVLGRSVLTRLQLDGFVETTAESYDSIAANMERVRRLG
Assay: X-ray crystal structure ([…] Å; phosphate from the crystallisation conditions); no binding detected by ITC

O=P(O)(O)O [phosphate]
Kd: > 2000 µM

— article PMC5908839 (Scientific Reports, 2018)
